This passage reports IC50 and melting point results from patent US9206186B2, “2-phenoxy- and 2-phenylsulfonamide derivatives with CCR3 antagonistic activity for the treatment of inflammatory or immunological disorders” (AXIKIN PHARMACEUTICALS, INC., priority 2003, dated 2015).

Each structure is given as a SMILES string. pIC50: −log10 of the molar value. Structures can show the parent of a compound that is named as a salt.

One series has as its target T1, Human CCR3 (Homo sapiens, UniProt P51677).
T1 construct: The cloned CCR3 cDNA was constructed with pcDNA3 vector and transfected into a K562 cell line; expressed in transfected cells
T1 sequence (P51677 1-355): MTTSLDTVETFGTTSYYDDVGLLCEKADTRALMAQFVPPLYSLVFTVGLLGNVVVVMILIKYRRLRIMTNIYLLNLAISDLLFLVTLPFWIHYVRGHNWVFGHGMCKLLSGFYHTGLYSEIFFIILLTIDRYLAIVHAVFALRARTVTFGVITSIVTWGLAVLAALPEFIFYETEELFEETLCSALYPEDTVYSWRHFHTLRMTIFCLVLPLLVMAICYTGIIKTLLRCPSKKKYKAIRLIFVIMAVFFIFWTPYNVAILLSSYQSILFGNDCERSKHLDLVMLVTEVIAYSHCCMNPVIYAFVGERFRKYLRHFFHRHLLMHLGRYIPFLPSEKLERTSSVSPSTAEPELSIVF
The series can be described thus: Calcium mobilization assay (Ca2+), eotaxin-stimulated human CCR3-transformed K562 cells. It counts as cell-based. The settings on record: compounds of about 40 to 90% purity, read-out: Activity grade IC50. The protocol:
• Human CCR3-transformed K562 cells were used. The cloned CCR3 cDNA was constructed with pcDNA3 vector and transfected into a K562 cell line. The human CCR3-transformed K562 cells were maintained in RPMI-1640 (Cat.#22400-089, Life Technologies) supplemented with 10% FCS (Cat.#A-1115-L, Hyclone), 55 μM 2-mercaptoethanol (Cat.#21985-023, Life Technologies), 1 mM sodium pyruvate (Cat.#11360-070, Life Technologies), 100 units/ml of penicillin G and 100 μg/ml of streptomycin (Cat.#15140-122, Life Technologies), and 0.4 mg/ml of Geneticin (Cat.#10131-035, Life Technologies) (hereinafter called “culture medium”). Before the receptor binding assay, cells were pretreated with 5 mM sodium butyrate (Cat.#193-01522, Wako)-containing the culture medium (2×10^5 cells/ml) for 20-24 hours to increase the expression of CCR3. (2) Receptor Binding Assay • Butyrate-pretreated cells, suspended in binding buffer (25 mM HEPES pH 7.6, 1 mM CaCl2, 5 mM MgCl2, 0.5% BSA, 0.1% NaN3) at a cell density of 2×10^6 cells/ml, were added into 60 μl/well in the 96-well round bottom polypropylene plate (Cat.#3365, Costar). Compounds, diluted with the binding buffer (4-times higher concentration of the final concentration), were added into 30 μl/well in the polypropylene plate. [^125I]-labeled human eotaxin (Cat.#IM290, Amersham Pharmacia Biotech), diluted with the binding buffer at the concentration of 0.4 nM (final concentration; 0.1 nM), was added into 30 μl/well in the polypropylene plate. Total 120 μl/well of binding reaction mixture (60 μl/well of cell suspension, 30 μl/well of compound solution, and 30 μl/well of [^125I]-labeled eotaxin) were incubated in the polypropylene plate for 1 hour at room temperature after the incubation, 100 μl/well of the reaction mixture was transferred to a filtration plate (Cat.#MAFB-N0B, Millipore), and washed with the washing buffer (25 mM HEPES pH 7.6, 1 mM CaCl2, 5 mM MgCl2, 0.5% BSA, 0.1% NaN3, 0.5 M NaCl) twice. The 96-well filtration plate was pretreated with 100 μl/well of 0.5% polyethylenimine (Cat.#P-3143, Sigma) for 2-4 hours at room temperature and washed with the washing buffer twice before use. The non-specific binding was determined by parallel incubation in the presence of 500 nM of non-labeled eotaxin (Cat.#23209, Genzyme Techne). The radioactivities remained on the filter were measured by liquid scintillation counter (TopCount™, Packard) after an addition of 45 μl/well of scintillant (Microscint20, Cat.#6013621, Packard). The inhibition percent at each concentration of compound was calculated, and IC50 values were determined from the inhibition curve. [Determination of IC50 Values of Compounds in Calcium Mobilization Assay] (1) Cell • Human CCR3-transformed K562 cells were used. The human CCR3-transformed K562 cells were maintained in RPMI-1640 supplemented with 10% FCS, 55 μM 2-mercaptoethanol (Cat.#21985-023, Life Technologies), 1 mM sodium pyruvate, 100 units/ml of penicillin G and 100 μg/ml of streptomycin, and 0.4 mg/ml of Geneticin. Before the calcium mobilization assay, cells were pretreated with 5 mM sodium butyrate-containing the culture medium (2×10^5 cells/ml) for 20-24 hours to increase the expression of CCR3. (2) Calcium Mobilization Assay • Butyrate-pretreated cells were loaded with Fluo-3AM (Cat.#F-1242, Molecular Probes) in loading buffer (Hanks' solution Cat.#05906 Nissui, 20 mM HEPES pH 7.6, 0.1% BSA, 1 mM probenecid Cat.#P-8761 Sigma, 1 μM Fluo-3AM, 0.01% pluronic F-127 Cat.#P-6866 Molecular Probes) at a cell density of 1×10^7 cells/ml. Then, cells were washed with calcium assay buffer (Hanks' solution Cat.#05906 Nissui, 20 mM HEPES pH 7.6, 0.1% BSA, 1 mM Probenecid Cat.#P-8761 Sigma). The cell suspension (3.3×10^6 cells/ml) was added into 60 μl/well in the 96-well clear bottom black plate (Cat.#3904, Costar). Compounds, diluted (5-times concentration of the final concentration) with the calcium assay buffer, were added into 20 μl/well in the plate 10 minutes before assay. […]

In general, pIC50 refers to the IC50 on a negative log10 scale, so that one unit is a factor of ten. On to `N#Cc1ccc(Oc2cc(Cl)cc(Cl)c2)c(S(=O)(=O)N[C@H]2CN3CCC2CC3)c1` [Example 1-1, N—(R)-(+)-(1-aza-bicyclo[2.2.2]oct-3-yl)-5-cyano-2-(3,5-dichloro-phenoxy)-benzenesulfonamide], for which the pIC50 at Human CCR3 was above 7.00.

`CN(C)CCN(CCN1C(=O)CCC1=O)S(=O)(=O)c1cc(C#N)ccc1Oc1cc(Cl)cc(Cl)c1` [Example 1-2, 5-cyano-2-(3,5-dichloro-phenoxy)-N-(2-dimethylamino-ethyl)-N-[2-(2,5-dioxo-pyrrolidin-1-yl)-ethyl]-benzenesulfonamide]: at Human CCR3, the negative logarithm of the IC50 (pIC50) was above 7.00.

Consider `N#Cc1ccc(Oc2cc(Cl)cc(Cl)c2)c(S(=O)(=O)N2CCN[C@@H](Cc3c[nH]c4ccccc34)C2)c1` [Example 1-3, 4-(3,5-dichloro-phenoxy)-3-[(3S)-(1H-indol-3-ylmethyl)-piperazine-1-sulfonyl]-benzonitrile], for which the pIC50 at Human CCR3 was above 7.00.

Regarding `N#Cc1ccc(Oc2cc(Cl)cc(Cl)c2)c(S(=O)(=O)N2CCNCC2Cn2cncn2)c1` (stereo not shown) [Example 1-4, 4-(3,5-dichlorophenoxy)-3-{[2-(1H-1,2,4-triazol-1-ylmethyl)-1-piperazinyl]sulfonyl}benzonitrile hydrochloride], the pIC50 on Human CCR3 was above 7.00.

Broadly, the melting point is the temperature of the solid-liquid transition. In turn, `N#Cc1ccc(Oc2cc(Cl)cc(Cl)c2)c(S(=O)(=O)N2CCCCC2)c1` [Example 1-5] had a melting point of 171 to 172 °C. Besides, at Human CCR3, the pIC50 was below 6.30.

Regarding `N#Cc1ccc(Oc2cc(Cl)cc(Cl)c2)c(S(=O)(=O)N2CC3CCN(Cc4ccccc4)C3C2)c1` (stereo not shown) [Example 1-6], the pIC50 at Human CCR3 is above 7.00.

In the case of `CS(=O)(=O)NCC1CN(S(=O)(=O)c2cc(C#N)ccc2Oc2cc(Cl)cc(Cl)c2)CCN1` (stereo not shown) [Example 1-7], the negative logarithm of the IC50 (pIC50) on Human CCR3 is above 7.00.

With `CC(=O)NCC1CN(S(=O)(=O)c2cc(C#N)ccc2Oc2cc(Cl)cc(Cl)c2)CCN1` (stereo not shown) [Example 1-8], on Human CCR3, the pIC50 was above 7.00.

On to `CS(=O)(=O)NCC1CNCCN1S(=O)(=O)c1cc(C#N)ccc1Oc1cc(Cl)cc(Cl)c1` (stereo not shown) [Example 1-9], for which the pIC50 on Human CCR3 is above 7.00.

Regarding `CC(=O)NCC1CNCCN1S(=O)(=O)c1cc(C#N)ccc1Oc1cc(Cl)cc(Cl)c1` (stereo not shown) [Example 1-10], the pIC50 at Human CCR3 is above 7.00.

`N#Cc1ccc(Oc2cc(Cl)cc(Cl)c2)c(S(=O)(=O)N2CCC(N3C[C@H](O)[C@@H](O)C3)CC2)c1` [Example 1-11] returned a melting point of 137 to 139 °C. Besides, at Human CCR3, the pIC50 is above 7.00.

For `COC(=O)C1CN(S(=O)(=O)c2cc(C#N)ccc2Oc2cc(Cl)cc(Cl)c2)CCCN1` (stereo not shown) [Example 1-12], the pIC50 on Human CCR3 was 6.30 to 7.00.

Regarding `COC(=O)[C@@H]1C[C@H](N2CCCC2)CN1S(=O)(=O)c1cc(C#N)ccc1Oc1cc(Cl)cc(Cl)c1` [Example 1-13], the pIC50 on Human CCR3 was above 7.00.

Consider `N#Cc1ccc(Oc2cc(Cl)cc(Cl)c2)c(S(=O)(=O)N2CC[C@H](NCCO)C2)c1` [Example 1-16], for which the melting point was in the range of 155 to 156 °C. Also, the pIC50 on Human CCR3 is above 7.00.

As to `COC(=O)C1CNCCCN1S(=O)(=O)c1cc(C#N)ccc1Oc1cc(Cl)cc(Cl)c1` (stereo not shown) [Example 1-22], the negative-log IC50 (pIC50) on Human CCR3 was above 7.00.

As to `N#Cc1ccc(Oc2cc(Cl)cc(Cl)c2)c(S(=O)(=O)N2CCNC[C@@H]2Cc2c[nH]c3ccccc23)c1` [Example 1-26], the melting point is 116 to 117 °C. For the same molecule, the pIC50 on Human CCR3 is above 7.00.

Turning to `N#Cc1ccc(Oc2cc(Cl)cc(Cl)c2)c(S(=O)(=O)N2CCNCC2CN2C(=O)CCC2=O)c1` (stereo not shown) [Example 1-27], the pIC50 at Human CCR3 is above 7.00.

In the case of `CS(=O)(=O)NCC1CN(S(=O)(=O)c2cc(C#N)ccc2Oc2cc(Cl)cc(Cl)c2)CCCN1` (stereo not shown) [Example 1-28], on Human CCR3, the pIC50 was above 7.00.

Consider `CS(=O)(=O)NCC1CNCCCN1S(=O)(=O)c1cc(C#N)ccc1Oc1cc(Cl)cc(Cl)c1.Cl` (stereo not shown) [Example 1-29], for which the melting point was 183 to 184 °C. The pIC50 on Human CCR3 is above 7.00.

For the molecule `CC(=O)c1ccc(Oc2cc(Cl)cc(Cl)c2)c(S(=O)(=O)N2CCNCC2)c1` [Example 1-31], the melting point was in the range of 169 to 170 °C. The pIC50 on Human CCR3 was above 7.00.

Take `N#Cc1ccc(Oc2cc(Cl)cc(Cl)c2)c(S(=O)(=O)N[C@@H]2CN3CCC2CC3)c1` [Example 1-32]: the pIC50 on Human CCR3 is above 7.00.

As to `N#Cc1ccc(Oc2cc(Cl)cc(Cl)c2)c(S(=O)(=O)N2CCC(N3CCC[C@H]3C(=O)O)CC2)c1` [Example 1-33], the melting point was 224 to 225 °C. Besides, the pIC50 at Human CCR3 is 6.30 to 7.00.

`CC(C)(O)[C@@H]1CCCN1C1CCN(S(=O)(=O)c2cc(C#N)ccc2Oc2cc(Cl)cc(Cl)c2)CC1` [Example 1-34]: the melting point is 103 °C. Besides, the pIC50 at Human CCR3 was above 7.00.

On to `N#Cc1ccc(Oc2cc(Cl)cc(Cl)c2)c(S(=O)(=O)N2CCCCC2CN2CCC(O)C2)c1` (stereo not shown) [Example 1-35], for which the negative logarithm of the IC50 (pIC50) at Human CCR3 was above 7.00.

Turning to `N#Cc1ccc(Oc2cc(Cl)cc(Cl)c2)c(S(=O)(=O)N2CCNC(Cn3ncnn3)C2)c1` (stereo not shown) [Example 1-36], on Human CCR3, the pIC50 is above 7.00.

With `Cl.N#Cc1ccc(Oc2cc(Cl)cc(Cl)c2)c(S(=O)(=O)N2CCNC(Cn3cncn3)C2)c1` (stereo not shown) [Example 1-37], the melting point is 184 to 185 °C (dec.). The pIC50 at Human CCR3 is above 7.00.

For the molecule `CCN1CCCN(S(=O)(=O)c2cc(C#N)ccc2Oc2cc(Cl)cc(Cl)c2)C(C(=O)OC)C1` (stereo not shown) [Example 1-39], at Human CCR3, the pIC50 is above 7.00.

For the molecule `N#Cc1ccc(Oc2cc(Cl)cc(Cl)c2)c(S(=O)(=O)N(CCN2CCCC2)C2CCCC2)c1` [Example 1-42], the pIC50 on Human CCR3 was above 7.00.

`N#Cc1ccc(Oc2cc(Cl)cc(Cl)c2)c(S(=O)(=O)N2CCNC(CN3C(=O)CCC3=O)C2)c1` (stereo not shown) [Example 1-43] gave a melting point of 123 to 125 °C. Also, the pIC50 at Human CCR3 is above 7.00.

Molecule `N#Cc1ccc(Oc2cc(Cl)cc(Cl)c2)c(S(=O)(=O)N2CCC(N3CCCC3)C(CN3C(=O)CCC3=O)C2)c1` (stereo not shown) [Example 1-44] displayed a melting point of 121 °C. For the same molecule, the pIC50 at Human CCR3 was above 7.00.

The molecule `N#Cc1ccc(Oc2cc(Cl)cc(Cl)c2)c(S(=O)(=O)N2CCC(N3CCC[C@H]3CO)CC2)c1` [Example 1-45] yielded a melting point of 124 °C. The pIC50 on Human CCR3 was above 7.00.

Turning to `N#Cc1ccc(Oc2cc(Cl)cc(Cl)c2)c(S(=O)(=O)N2CCC[C@H]2CN2CCC[C@H]2CO)c1` [Example 1-46], the melting point stood at 157 °C. Moreover, on Human CCR3, the pIC50 is above 7.00.

`N#Cc1ccc(Oc2cc(Cl)cc(Cl)c2)c(S(=O)(=O)C2CCNCC2)c1` [Example 2-1, 4-(3,5-Dichloro-phenoxy)-3-(piperidine-4-sulfonyl)-benzonitrile]: the pIC50 at Human CCR3 is below 6.30.
